In the supplement of paper PMC12463676, “Small-molecule dissolution of stress granules by redox modulation benefits ALS models” (Nature Chemical Biology, 2025):

Tests used:
potassium arsenate = compound: O=[As]([O-])(O)O.[K+] [potassium arsenate]; assay: thermal stability z-score vs DMSO; higher = more thermally stabilized by treatment; details: HeLa; arsenate concentration 1 mM
Experimental: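 Cellular thermal proteome profiling in HeLa cells treated with 1 mM arsenate for 1 h (DMSO pretreatment), heated to ten temperatures (37-66.3 °C). Soluble protein was quantified by TMT mass spectrometry relative to DMSO controls; the thermal stability score was transformed to a z-score; mean of n = 3 experiments.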

lipoamide = compound: NC(=O)CCCCC1CCSS1 [lipoamide]; assay: as above; details: HeLa, lipoamide concentration 100 µM
Experimental: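 Cellular thermal proteome profiling in HeLa cells. Cells were treated with 100 µM lipoamide for 1 h, with or without 1 mM arsenate for a further 1 h, then heated to ten temperatures (37-66.3 °C), and soluble protein was quantified by TMT mass spectrometry relative to 0.1% DMSO controls. The thermal stability score (sum of log2 fold changes minus the abundance score) was transformed to a z-score; mean of n = 3 experiments.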

[1] = arsenate co-treatment: 1 mM arsenate 1 h
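Also: each temperature applied for 3 min, abundance score taken as mean log2 fold change at the two lowest temperatures, z-score obtained by mean subtraction and division by SD.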

TRADD (UniProt Q15628)
thermal stability z-score (potassium arsenate): -0.497 | thermal stability z-score (lipoamide; [1]): 0.0371 | thermal stability z-score (lipoamide; arsenate co-treatment: none): 0.0442

EEF2K (UniProt O00418)
UniProt O00418, sequence (O00418 whole entry): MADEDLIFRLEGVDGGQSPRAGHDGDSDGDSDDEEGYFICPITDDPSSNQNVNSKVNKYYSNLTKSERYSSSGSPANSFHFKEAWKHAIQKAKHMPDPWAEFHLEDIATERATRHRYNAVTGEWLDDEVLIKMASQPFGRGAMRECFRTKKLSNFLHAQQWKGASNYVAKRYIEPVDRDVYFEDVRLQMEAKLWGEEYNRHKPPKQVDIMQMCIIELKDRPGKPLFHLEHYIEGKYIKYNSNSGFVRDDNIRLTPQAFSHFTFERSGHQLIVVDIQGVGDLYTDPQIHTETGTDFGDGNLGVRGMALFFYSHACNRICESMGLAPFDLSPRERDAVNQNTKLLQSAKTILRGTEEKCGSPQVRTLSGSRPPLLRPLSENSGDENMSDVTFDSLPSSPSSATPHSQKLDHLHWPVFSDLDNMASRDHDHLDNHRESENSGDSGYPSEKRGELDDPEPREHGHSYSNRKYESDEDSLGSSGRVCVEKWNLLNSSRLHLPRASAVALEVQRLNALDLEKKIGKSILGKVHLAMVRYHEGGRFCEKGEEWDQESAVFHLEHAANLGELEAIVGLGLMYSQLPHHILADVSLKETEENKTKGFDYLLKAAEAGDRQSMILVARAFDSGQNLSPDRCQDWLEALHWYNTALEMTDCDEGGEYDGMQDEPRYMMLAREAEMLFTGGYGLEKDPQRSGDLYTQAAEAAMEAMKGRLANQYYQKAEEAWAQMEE
thermal stability z-score (potassium arsenate): -0.0657 | thermal stability z-score (lipoamide; [1]): -0.0522 | thermal stability z-score (lipoamide; arsenate co-treatment: none): -0.0721

MOSPD1 (UniProt Q9UJG1)
UniProt Q9UJG1, sequence (Q9UJG1 whole entry): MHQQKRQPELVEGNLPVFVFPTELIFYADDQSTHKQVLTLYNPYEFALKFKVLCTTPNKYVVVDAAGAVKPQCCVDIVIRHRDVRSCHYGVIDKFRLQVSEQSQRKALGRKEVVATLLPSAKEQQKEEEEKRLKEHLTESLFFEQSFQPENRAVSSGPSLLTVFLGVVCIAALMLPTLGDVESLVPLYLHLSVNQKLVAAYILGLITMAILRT
thermal stability z-score (potassium arsenate): -0.354 | thermal stability z-score (lipoamide; [1]): -0.167 | thermal stability z-score (lipoamide; arsenate co-treatment: none): -0.25

TTK (UniProt P33981)
thermal stability z-score (potassium arsenate): 0.742 | thermal stability z-score (lipoamide; [1]): -0.85 | thermal stability z-score (lipoamide; arsenate co-treatment: none): -0.0774

CBX8 (UniProt Q9HC52)
thermal stability z-score (potassium arsenate): -0.0579 | thermal stability z-score (lipoamide; [1]): 0.035 | thermal stability z-score (lipoamide; arsenate co-treatment: none): 0.14

NADSYN1 (UniProt Q6IA69)
UniProt Q6IA69, sequence (Q6IA69 whole entry): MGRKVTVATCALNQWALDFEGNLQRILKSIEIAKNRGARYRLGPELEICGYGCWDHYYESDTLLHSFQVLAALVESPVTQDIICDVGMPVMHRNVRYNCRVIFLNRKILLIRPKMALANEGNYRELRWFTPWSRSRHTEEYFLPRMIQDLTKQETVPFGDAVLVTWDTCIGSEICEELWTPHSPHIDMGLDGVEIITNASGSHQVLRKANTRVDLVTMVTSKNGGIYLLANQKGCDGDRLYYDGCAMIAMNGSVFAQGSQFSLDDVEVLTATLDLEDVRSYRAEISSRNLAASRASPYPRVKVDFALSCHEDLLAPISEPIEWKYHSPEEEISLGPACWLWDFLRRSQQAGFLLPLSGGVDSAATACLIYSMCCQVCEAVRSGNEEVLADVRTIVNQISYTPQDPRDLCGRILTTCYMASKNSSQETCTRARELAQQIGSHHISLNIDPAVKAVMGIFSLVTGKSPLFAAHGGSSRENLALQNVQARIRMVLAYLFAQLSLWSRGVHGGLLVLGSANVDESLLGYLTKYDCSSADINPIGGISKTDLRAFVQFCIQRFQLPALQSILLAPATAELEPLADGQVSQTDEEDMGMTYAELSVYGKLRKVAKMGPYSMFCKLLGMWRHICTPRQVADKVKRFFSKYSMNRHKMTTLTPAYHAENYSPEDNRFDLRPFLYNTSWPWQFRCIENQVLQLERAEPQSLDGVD
thermal stability z-score (potassium arsenate): -0.0415 | thermal stability z-score (lipoamide; [1]): 0.995 | thermal stability z-score (lipoamide; arsenate co-treatment: none): 0.788

GOLGA5 (UniProt Q8TBA6)
thermal stability z-score (potassium arsenate): 0.197 | thermal stability z-score (lipoamide; [1]): 0.419 | thermal stability z-score (lipoamide; arsenate co-treatment: none): 0.582

HAUS4 (UniProt Q9H6D7)
thermal stability z-score (potassium arsenate): 0.0479 | thermal stability z-score (lipoamide; [1]): -0.0376 | thermal stability z-score (lipoamide; arsenate co-treatment: none): 0.0952

CAMLG (UniProt P49069)
thermal stability z-score (potassium arsenate): 0.0417 | thermal stability z-score (lipoamide; [1]): 0.508 | thermal stability z-score (lipoamide; arsenate co-treatment: none): 0.0877

ZC3H12A (UniProt Q5D1E8)
thermal stability z-score (potassium arsenate): -0.189 | thermal stability z-score (lipoamide; [1]): 0.0783 | thermal stability z-score (lipoamide; arsenate co-treatment: none): -0.187

MIEN1 (UniProt Q9BRT3)
UniProt Q9BRT3, sequence (Q9BRT3 whole entry): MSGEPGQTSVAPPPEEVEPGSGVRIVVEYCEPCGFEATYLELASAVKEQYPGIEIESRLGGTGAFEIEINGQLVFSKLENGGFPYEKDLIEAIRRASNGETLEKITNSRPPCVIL
thermal stability z-score (potassium arsenate): 0.969 | thermal stability z-score (lipoamide; [1]): 0.165 | thermal stability z-score (lipoamide; arsenate co-treatment: none): -0.595

GNPDA2 (UniProt Q8TDQ7)
thermal stability z-score (potassium arsenate): -0.0337 | thermal stability z-score (lipoamide; [1]): -0.212 | thermal stability z-score (lipoamide; arsenate co-treatment: none): -0.181

CRKL (UniProt P46109)
thermal stability z-score (potassium arsenate): 0.656 | thermal stability z-score (lipoamide; [1]): 0.0621 | thermal stability z-score (lipoamide; arsenate co-treatment: none): 0.384

USP24 (UniProt Q9UPU5)
UniProt Q9UPU5, sequence (Q9UPU5 whole entry): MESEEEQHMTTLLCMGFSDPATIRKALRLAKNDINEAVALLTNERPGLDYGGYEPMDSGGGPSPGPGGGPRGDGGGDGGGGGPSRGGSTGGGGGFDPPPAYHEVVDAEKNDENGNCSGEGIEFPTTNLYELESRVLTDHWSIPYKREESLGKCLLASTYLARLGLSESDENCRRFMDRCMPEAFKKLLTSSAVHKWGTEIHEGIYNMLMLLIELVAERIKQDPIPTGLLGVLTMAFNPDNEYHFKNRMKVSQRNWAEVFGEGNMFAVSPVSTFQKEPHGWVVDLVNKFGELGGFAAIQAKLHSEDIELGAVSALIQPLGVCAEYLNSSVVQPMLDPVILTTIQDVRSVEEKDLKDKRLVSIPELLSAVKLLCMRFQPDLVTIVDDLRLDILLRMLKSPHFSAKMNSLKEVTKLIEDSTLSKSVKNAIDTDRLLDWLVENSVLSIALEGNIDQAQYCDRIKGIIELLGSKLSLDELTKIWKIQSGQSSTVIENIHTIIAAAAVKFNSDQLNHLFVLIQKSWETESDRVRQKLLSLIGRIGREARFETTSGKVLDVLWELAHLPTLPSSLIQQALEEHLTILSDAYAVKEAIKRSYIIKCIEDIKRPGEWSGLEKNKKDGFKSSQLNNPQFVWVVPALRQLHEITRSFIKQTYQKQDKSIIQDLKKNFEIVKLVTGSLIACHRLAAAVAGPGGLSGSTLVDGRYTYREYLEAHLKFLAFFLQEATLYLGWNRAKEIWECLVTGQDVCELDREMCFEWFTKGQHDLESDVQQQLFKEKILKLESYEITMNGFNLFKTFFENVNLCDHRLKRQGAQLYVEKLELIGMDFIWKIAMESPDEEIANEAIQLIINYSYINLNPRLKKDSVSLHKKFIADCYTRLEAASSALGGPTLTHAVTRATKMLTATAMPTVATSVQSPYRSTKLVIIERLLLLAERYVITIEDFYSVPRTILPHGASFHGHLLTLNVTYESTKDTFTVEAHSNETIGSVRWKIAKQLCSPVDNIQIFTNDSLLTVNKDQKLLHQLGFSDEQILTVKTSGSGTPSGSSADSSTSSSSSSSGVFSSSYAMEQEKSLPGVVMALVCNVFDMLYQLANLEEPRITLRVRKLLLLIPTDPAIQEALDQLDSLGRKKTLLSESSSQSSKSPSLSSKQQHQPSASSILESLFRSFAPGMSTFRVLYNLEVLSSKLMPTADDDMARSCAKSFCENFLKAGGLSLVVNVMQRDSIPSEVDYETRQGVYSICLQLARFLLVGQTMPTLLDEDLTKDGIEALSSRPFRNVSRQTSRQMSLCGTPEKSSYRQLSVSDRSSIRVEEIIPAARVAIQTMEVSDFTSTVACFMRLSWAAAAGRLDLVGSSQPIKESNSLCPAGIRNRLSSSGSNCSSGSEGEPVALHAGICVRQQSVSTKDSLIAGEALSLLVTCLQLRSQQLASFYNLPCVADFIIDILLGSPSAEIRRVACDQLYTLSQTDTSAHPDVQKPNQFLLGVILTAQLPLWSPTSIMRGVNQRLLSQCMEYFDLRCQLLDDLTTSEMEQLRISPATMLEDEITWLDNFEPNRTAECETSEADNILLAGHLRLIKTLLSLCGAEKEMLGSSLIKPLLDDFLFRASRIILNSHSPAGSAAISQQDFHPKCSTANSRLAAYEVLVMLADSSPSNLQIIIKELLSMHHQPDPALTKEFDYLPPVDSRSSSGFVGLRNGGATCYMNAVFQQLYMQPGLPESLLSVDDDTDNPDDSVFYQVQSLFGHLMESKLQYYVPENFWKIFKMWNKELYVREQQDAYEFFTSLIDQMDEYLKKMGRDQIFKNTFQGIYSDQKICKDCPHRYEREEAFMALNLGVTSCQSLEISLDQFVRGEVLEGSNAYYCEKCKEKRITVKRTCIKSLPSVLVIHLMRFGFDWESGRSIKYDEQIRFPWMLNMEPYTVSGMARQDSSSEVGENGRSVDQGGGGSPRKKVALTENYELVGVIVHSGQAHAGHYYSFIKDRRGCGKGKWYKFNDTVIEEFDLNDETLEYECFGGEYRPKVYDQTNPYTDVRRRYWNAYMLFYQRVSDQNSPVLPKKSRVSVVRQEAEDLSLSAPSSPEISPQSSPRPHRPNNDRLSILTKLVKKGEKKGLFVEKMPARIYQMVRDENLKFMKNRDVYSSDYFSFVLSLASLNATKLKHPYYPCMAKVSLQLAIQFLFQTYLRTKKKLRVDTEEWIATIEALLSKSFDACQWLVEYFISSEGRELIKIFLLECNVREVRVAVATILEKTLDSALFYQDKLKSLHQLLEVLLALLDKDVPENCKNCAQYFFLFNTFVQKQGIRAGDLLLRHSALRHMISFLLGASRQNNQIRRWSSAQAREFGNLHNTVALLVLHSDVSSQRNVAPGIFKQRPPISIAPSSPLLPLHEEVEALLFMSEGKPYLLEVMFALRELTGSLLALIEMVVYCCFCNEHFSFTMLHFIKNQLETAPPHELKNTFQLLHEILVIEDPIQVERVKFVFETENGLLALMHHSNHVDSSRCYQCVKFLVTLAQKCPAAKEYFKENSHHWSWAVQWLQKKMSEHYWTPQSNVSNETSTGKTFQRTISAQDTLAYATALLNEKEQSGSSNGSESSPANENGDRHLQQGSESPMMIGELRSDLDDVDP
thermal stability z-score (potassium arsenate): -0.117 | thermal stability z-score (lipoamide; [1]): -0.197 | thermal stability z-score (lipoamide; arsenate co-treatment: none): -0.413

LMBRD2 (UniProt Q68DH5)
thermal stability z-score (potassium arsenate): -0.111 | thermal stability z-score (lipoamide; [1]): -0.904 | thermal stability z-score (lipoamide; arsenate co-treatment: none): -0.0118

EGFL7 (UniProt Q9UHF1)
thermal stability z-score (potassium arsenate): -0.108 | thermal stability z-score (lipoamide; [1]): 0.126 | thermal stability z-score (lipoamide; arsenate co-treatment: none): 0.102

BET1 (UniProt O15155)
UniProt O15155, sequence (O15155 whole entry): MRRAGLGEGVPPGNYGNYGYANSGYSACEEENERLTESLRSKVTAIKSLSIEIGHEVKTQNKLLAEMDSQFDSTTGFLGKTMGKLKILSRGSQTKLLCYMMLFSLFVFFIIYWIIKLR
thermal stability z-score (potassium arsenate): 1.11 | thermal stability z-score (lipoamide; [1]): 0.642 | thermal stability z-score (lipoamide; arsenate co-treatment: none): 1.03

RPS19BP1 (UniProt Q86WX3)
thermal stability z-score (potassium arsenate): -0.522 | thermal stability z-score (lipoamide; [1]): -0.305 | thermal stability z-score (lipoamide; arsenate co-treatment: none): -0.278

SNAPIN (UniProt O95295)
UniProt O95295, sequence (O95295 whole entry): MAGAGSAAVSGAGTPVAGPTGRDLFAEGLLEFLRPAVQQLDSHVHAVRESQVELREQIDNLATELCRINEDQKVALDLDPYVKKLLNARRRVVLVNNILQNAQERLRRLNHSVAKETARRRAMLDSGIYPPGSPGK
thermal stability z-score (potassium arsenate): 0.267 | thermal stability z-score (lipoamide; [1]): 0.164 | thermal stability z-score (lipoamide; arsenate co-treatment: none): 0.647

PPP2R5A (UniProt Q15172)
thermal stability z-score (potassium arsenate): 0.703 | thermal stability z-score (lipoamide; [1]): 0.468 | thermal stability z-score (lipoamide; arsenate co-treatment: none): 0.527

SMC2 (UniProt O95347)
thermal stability z-score (potassium arsenate): 0.802 | thermal stability z-score (lipoamide; [1]): 0.528 | thermal stability z-score (lipoamide; arsenate co-treatment: none): 0.546

MSMO1 (UniProt Q15800)
thermal stability z-score (potassium arsenate): 0.343 | thermal stability z-score (lipoamide; [1]): -1.28 | thermal stability z-score (lipoamide; arsenate co-treatment: none): -1.47

RTN3 (UniProt O95197)
thermal stability z-score (potassium arsenate): 0.525 | thermal stability z-score (lipoamide; [1]): 0.112 | thermal stability z-score (lipoamide; arsenate co-treatment: none): 0.0244

LPIN1 (UniProt Q14693)
thermal stability z-score (potassium arsenate): -1.07 | thermal stability z-score (lipoamide; [1]): -0.429 | thermal stability z-score (lipoamide; arsenate co-treatment: none): -0.906

ESYT1 (UniProt Q9BSJ8)
thermal stability z-score (potassium arsenate): 0.595 | thermal stability z-score (lipoamide; [1]): -0.86 | thermal stability z-score (lipoamide; arsenate co-treatment: none): -0.642

ST3GAL4 (UniProt Q11206)
thermal stability z-score (potassium arsenate): 0.726 | thermal stability z-score (lipoamide; [1]): -0.112 | thermal stability z-score (lipoamide; arsenate co-treatment: none): 0.0672

CTH (UniProt P32929)
UniProt P32929, sequence (P32929 whole entry): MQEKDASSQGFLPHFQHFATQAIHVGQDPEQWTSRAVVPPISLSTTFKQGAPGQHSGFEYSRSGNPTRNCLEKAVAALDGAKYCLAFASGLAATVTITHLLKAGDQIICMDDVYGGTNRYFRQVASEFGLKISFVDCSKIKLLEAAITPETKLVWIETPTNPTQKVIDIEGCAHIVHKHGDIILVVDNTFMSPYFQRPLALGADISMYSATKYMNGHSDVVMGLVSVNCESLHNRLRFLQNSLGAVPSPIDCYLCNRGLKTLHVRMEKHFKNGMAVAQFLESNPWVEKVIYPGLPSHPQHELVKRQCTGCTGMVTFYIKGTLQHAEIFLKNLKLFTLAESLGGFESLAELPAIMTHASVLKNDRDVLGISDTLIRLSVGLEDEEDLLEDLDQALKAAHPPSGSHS
thermal stability z-score (potassium arsenate): 0.596 | thermal stability z-score (lipoamide; [1]): 0.473 | thermal stability z-score (lipoamide; arsenate co-treatment: none): 0.559

PPM1L (UniProt Q5SGD2)
thermal stability z-score (potassium arsenate): -0.192 | thermal stability z-score (lipoamide; [1]): -0.022 | thermal stability z-score (lipoamide; arsenate co-treatment: none): -0.095

SFXN1 (UniProt Q9H9B4)
thermal stability z-score (potassium arsenate): 0.0559 | thermal stability z-score (lipoamide; [1]): 0.607 | thermal stability z-score (lipoamide; arsenate co-treatment: none): 0.214

CRBN (UniProt Q96SW2)
thermal stability z-score (potassium arsenate): -0.0801 | thermal stability z-score (lipoamide; [1]): 0.304 | thermal stability z-score (lipoamide; arsenate co-treatment: none): -0.141
